Assay results published in patent US5654299A, “Aryl substituted heterocycles” (Zeneca Limited, priority 1993, dated 1997).
“And” between values parts separate entries of the source, which are not always exact repeats. Identical values can stand only once. Counter-ions that a name gives are not always drawn. Like-named read-outs stand apart in the source and are kept apart here.

Legend:
human NK2 receptor = molecular target: T1, human NK2 receptor (Homo sapiens, UniProt P21452); assay: Neurokinin A (NKA) Receptor-binding Assay (Test A), 3H-NKA binding to MEL cell membranes (MELM)
T1 sequence (P21452 1-398): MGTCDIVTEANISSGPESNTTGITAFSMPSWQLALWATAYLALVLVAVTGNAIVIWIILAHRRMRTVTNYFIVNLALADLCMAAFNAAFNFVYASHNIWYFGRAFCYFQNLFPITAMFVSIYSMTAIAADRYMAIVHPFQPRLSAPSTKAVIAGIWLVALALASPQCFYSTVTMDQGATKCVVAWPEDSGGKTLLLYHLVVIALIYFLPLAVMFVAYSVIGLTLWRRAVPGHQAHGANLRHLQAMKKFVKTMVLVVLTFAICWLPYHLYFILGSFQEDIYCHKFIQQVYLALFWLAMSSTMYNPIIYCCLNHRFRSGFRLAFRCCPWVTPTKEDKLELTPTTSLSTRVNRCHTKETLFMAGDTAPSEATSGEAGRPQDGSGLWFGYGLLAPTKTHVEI
Description: MEL C88 cells (A. Deisseroth et al., Cell (1978) 1-5, 55-63) were electroporated (M. Antoniou, Methods Molecular Biology (1991) 7, 421-434) with PvuI linearized pGSE1417/human NK2 receptor DNA. Directly after transfection, cells were diluted in culture medium to 10^4 and 10^5 cell per mL and 1 mL aliquots transferred to each well of a 24-well plate. G418 was added to a concentration of 1 mg/mL 24 hours after the transfection to select for stable transfectants. Individual clones were picked or pooled to generate populations seven to ten days after the addition of selective medium. […] Samples were taken 4 days post induction for mRNA and NKA binding analyses.
Membrane preparations (MELM) prepared from the MEL cells containing high-affinity NK2 receptors were prepared according to a published protocol (D. Aharony, et al., Neuropeptides (1992) 23, 121-130) with the following minor modifications: (1) Iodoacetamide (1 mM) was included in the homogenization buffer; (2) Homogenization was as published but for a shorter period of 10 seconds once and at a slower speed (setting 10); and (3) The equilibration step with KCl/EDTA was not performed.

guinea pig trachea = molecular target: T2, guinea pig trachea (Cavia porcellus, UniProt Q64077); assay: Guinea Pig Trachea Assay (Test B), antagonism of NKA or [β-ala^8]-NKA(4-10); type: cell-based; details: for Kb: guinea pig trachea, apparent dissociation constant, -log molar KB
T2 sequence (Q64077 1-402): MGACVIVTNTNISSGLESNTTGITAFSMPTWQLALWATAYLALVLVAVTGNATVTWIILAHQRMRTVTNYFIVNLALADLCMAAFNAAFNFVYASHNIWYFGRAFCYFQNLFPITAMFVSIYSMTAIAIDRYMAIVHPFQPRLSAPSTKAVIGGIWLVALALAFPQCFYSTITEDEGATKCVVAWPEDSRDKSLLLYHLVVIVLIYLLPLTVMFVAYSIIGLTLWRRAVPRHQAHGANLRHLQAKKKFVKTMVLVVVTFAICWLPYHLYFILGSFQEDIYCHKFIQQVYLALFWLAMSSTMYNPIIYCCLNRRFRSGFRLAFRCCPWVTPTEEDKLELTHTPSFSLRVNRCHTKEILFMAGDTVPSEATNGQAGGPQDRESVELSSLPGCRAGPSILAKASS
Description: In the test described below either NKA or [β-ala^8 ]-NKA(4-10) is used as an agonist. The chosen agonist is referred to as AG throughout the description.
Male guinea pigs are killed by a sharp blow to the back of the head. The trachea are removed, trimmed of excess tissue and divided into two segments. Each segment is suspended as a ring between stainless steel stirrups in water-jacketed (37.5° C.) tissue baths containing a physiological salt solution of the following composition (mM): NaCl, 119; KCl 4.6; CaCl2, 1.8; MgCl2, 0.5; NaH2 PO4, 1; NaHCO3, 25; glucose, 11; thiorphan, 0.001; and indomethacin, 0.005; gassed continuously with 95% O2 -%5 CO2. Initial tension placed on each tissue is 1 g, which is maintained throughout a 0.5 to 1.5 hour equilibration period before addition of other drugs. Contractile responses are measured on a Grass polygraph via Grass FT-03 force transducers.
Tissues are challenged repetitively with a single concentration of AG (10 nM) with intervening 30 min periods with washing to allow the tension to return to baseline levels. The magnitude of the contractions to AG reaches a constant level after two challenges, and each Compound is tested for inhibition of responses to AG by addition to the tissue bath 15 minute before the third or subsequent exposure to the agonist. The contractile response to AG in the presence of Compound is compared to that obtained with the second AG challenge (in the absence of Compound). Percent inhibition is determined when a Compound produces a statistically significant (p<0.05) reduction of the contraction and is calculated using the second contractile response as 100%.
Potencies of selected Compounds are evaluated by calculating apparent dissociation constants (KB) for each concentration tested using the standard equation:
KB =[antagonist]/(dose ratio-1)
where dose ratio=antilog[(AG -log molar EC50 without Compound)-(AG -log molar EC50 with Compound)]. The KB values may be converted to the negative logarithms and expressed as -log molar KB (i.e. pKB). For this evaluation, complete concentration-response curves for AG are obtained in the absence and presence of Compound (30 min incubation period) using paired tracheal rings. The potency of AG is determined at 50% of its own maximum response level in each curve. The EC50 values are converted to the negative logarithms and expressed as -log molar EC50. Maximum contractile responses to AG are determined by expressing the maximum response to AG as a percentage of the contraction caused by carbachol (30 μM), added after the initial equilibration period. When a statistically significant (p<0.05) reduction of the maximum response to AG is produced by a compound, the percent inhibition is calculated relative to the percentage of carbachol contraction in the untreated, paired tissue used as 100%.

NK2 receptor = assay: Guinea Pig Labored Abdominal Breathing (Dyspnea) Assay (Test C), [β-ala^8]-NKA(4-10) aerosol; type: in vivo; details: 5 μmol/kg p.o., 120 min prior
Description: Guinea Pig Labored Abdominal Breathing (Dyspnea) Assay (Test C)
Using the clear plastic chamber described previously by Snyder et al. to secure guinea pigs for a head-only aerosol exposure to bronchoconstrictor agonists, agonist is administered by aerosol to six conscious guinea pigs simultaneously during each maneuver. The tachykinin NK2-selective agonist, [β-ala^8 ]-NKA(4-10), 3×10^-5 M, is aerosolized from a Devilhiss Model 25 ultrasonic nebulizer into an air stream entering the chamber at a rate of 2 L/minute.
Guinea pigs (275-400 g) are fasted for approximately 16 hours prior to experimentation. Compounds to be evaluated for blockade of effects of [β-ala^8 ]-NKA(4-10) or their vehicle (10% PEG400 in saline) are administered p.o. or i.v. at various times before aerosol agonist challenge. All animals are pretreated with atropine (10 mg/kg, i.p., 45 minutes pretreatment) indomethacin (10 mg/kg, i.p., 30 minutes pretreatment), propranolol (5 mg/kg, i.p., 30 minutes pretreatment), and thiorphan (1 mg/ml aerosol for 5 minutes, 15 minutes pretreatment).
Aerosol challenge with the agonist produces an initial increase in respiratory rate followed by a decrease with early signs of minor involvement of the abdominal muscles. The respiratory rate decreases further and the breathing becomes more labored with greater involvement of the abdominal muscles as exposure continues. The distinctly recognizable end point is the point where the breathing pattern of the guinea pig is consistently slow, deep, and deliberate, showing marked involvement of the abdominal muscles. Time, in seconds, from the onset of aerosol challenge to this end point is determined for each animal by using a stopwatch. […] Antagonists result in an increase in the time to reach the end point. Animals receive the aerosol administration of agonist for a maximum time of 780 seconds.
Differences between drug treated groups and corresponding vehicle treated control groups are compared using Student's t-test for unpaired observations.

[1] = system: NKA receptor from rat duodenum membranes; details: Edmonds-Alt (1993), cited from earlier work; for Ki: rat duodenum membranes, read-out: inhibition constant (Ki), [125I]-NKA binding
neurokinin receptors = details: EPA 559538; cited from earlier work
[2] = read-out: pKB (Test B) (converted)

Compound CN(CC(CCN1CC[C@H](c2ccccc2)[C@@H](O)C1)c1ccc(Cl)c(Cl)c1)C(=O)c1ccccc1 (relative stereo) [Example 10, N-[2-(3,4-Dichlorophenyl)-4-[(3R*,4R*)-3-hydroxy-4-phenylpiperidino]butyl-N-methylbenzamide hydrochloride] has a Ki (human NK2 receptor; read-out: Ki (Test A)) of 13 nM and a Kb (guinea pig trachea; [2]) of 10 nM.
In the case of CN(CC(CCN1CCC(c2ccccc2)CC1)c1ccc(Cl)c(Cl)c1)C(=O)c1ccccc1.Cl (centres unmarked) [Example 1, N-[2-(3,4-Dichlorophenyl)-4-(4-phenylpiperidino)butyl]-N-methylbenzamide hydrochloride], the “NK2 antagonism in words, Test A” value (human NK2 receptor; in vitro screen Test A) is reported as “potent NK2 antagonist”, the Ki (human NK2 receptor; read-out: Ki (Test A)) is reported as 2.6 nM and the “number fully protected/total number tested (Test C)” value (NK2 receptor) is reported as 0/6. The “percent protection (Test C)” value (NK2 receptor) was 17%, the “biological activity of the benzamide in words” value [1] was “lack of biological activity” and the Ki [1] was over 100 nM. For the same compound, the “NK2 antagonism in words, Test B” value (guinea pig trachea; functional assay Test B) was “potent NK2 antagonist” and the Kb (guinea pig trachea; [2]) was 10 nM and 6.31 nM.
COc1ccccc1C1CCN(CCC(CN(C)C(=O)c2ccccc2)c2ccc(Cl)c(Cl)c2)CC1 (centres unmarked) [Example 2, N-[2-(3,4-Dichlorophenyl)-4-[4-(2-methoxyphenyl)piperidino]butyl]-N-methylbenzamide hydrochloride] showed a Ki (human NK2 receptor; read-out: Ki (Test A)) of 9 nM and a Kb (guinea pig trachea; [2]) of 5.01 nM.
CN(CC(CCN1CCC(c2ccccc2O)CC1)c1ccc(Cl)c(Cl)c1)C(=O)c1ccccc1 (centres unmarked) [Example 6, N-[2-(3,4-Dichlorophenyl)-4-[4-(2-hydroxyphenyl)piperidino]butyl]-N-methylbenzamide hydrochloride] gave a Ki (human NK2 receptor; read-out: Ki (Test A)) of 2.8 nM and a Kb (guinea pig trachea; [2]) of 3.16 nM.
For Cc1nnc(C2CCN(CCC(CN(C)C(=O)c3ccccc3)c3ccc(Cl)c(Cl)c3)CC2)o1 (centres unmarked) [Example 7, N-[2-(3,4-Dichlorophenyl)-4-[4-(5-methyl-1,3,4-oxadiazol-2-yl)piperidino]butyl]-N-methylbenzamide hydrochloride], the Ki (human NK2 receptor; read-out: Ki (Test A)) was 21.1 nM and the Kb (guinea pig trachea; [2]) was 79.4 nM.
For CN(C[C@@H](CCN1CCC(c2cccnc2)CC1)c1ccc(Cl)c(Cl)c1)C(=O)c1ccccc1.Cl [Example 9, (S)-N-[2-(3,4-Dichlorophenyl)-4-[4-(3-pyridyl)piperidino]butyl]-N-methylbenzamide hydrochloride], the Ki (human NK2 receptor; read-out: Ki (Test A)) was 2 nM, the “number fully protected/total number tested (Test C)” value (NK2 receptor) was 5/6 and the “percent protection (Test C)” value (NK2 receptor) was 90%. It also gave a Kb (guinea pig trachea; [2]) of 2.51 nM.
For CSc1ccccc1C1CCN(CCC(CN(C)C(=O)c2ccccc2)c2ccc(Cl)c(Cl)c2)CC1.Cl (centres unmarked) [Example 13, N-[2-(3,4-Dichlorophenyl)-4-[4-(2-methylthiophenyl)-piperidino]butyl]-N-methylbenzamide hydrochloride], the Ki (human NK2 receptor; read-out: Ki (Test A)) was 3 nM, the “number fully protected/total number tested (Test C)” value (NK2 receptor) was 3/6 and the “percent protection (Test C)” value (NK2 receptor) was 78%. It also gave a Kb (guinea pig trachea; [2]) of 2.51 nM.
With CN(C[C@@H](CCN1CCC(c2ccccc2[S+](C)[O-])CC1)c1ccc(Cl)c(Cl)c1)C(=O)c1ccccc1.Cl (stereo partly drawn) [Example 14, (S)-N-[2-(3,4-Dichlorophenyl)-4-[4-(2-methylsulfinylphenyl)piperidino]butyl]-N-methylbenzamide hydrochloride] the Ki (human NK2 receptor; read-out: Ki (Test A)) was 0.3 nM, the “number fully protected/total number tested (Test C)” value (NK2 receptor) was 8/8 and the “percent protection (Test C)” value (NK2 receptor) was 100%. It also gave a Kb (guinea pig trachea; [2]) of 0.316 nM.
For CSc1ccc(C2CCN(CC[C@H](CN(C)C(=O)c3ccccc3)c3ccc(Cl)c(Cl)c3)CC2)cc1.Cl [Example 15, (S)-N-[2-(3,4-Dichlorophenyl)-4-[4-(4-methylthiophenyl)piperidino]butyl]-N-methylbenzamide hydrochloride], the Ki (human NK2 receptor; read-out: Ki (Test A)) was 2 nM, the “number fully protected/total number tested (Test C)” value (NK2 receptor) was 6/6 and the “percent protection (Test C)” value (NK2 receptor) was 100%. For the same compound, the Kb (guinea pig trachea; [2]) was 2 nM.
In the case of CN(C[C@@H](CCN1CCC(c2ccc([S+](C)[O-])cc2)CC1)c1ccc(Cl)c(Cl)c1)C(=O)c1ccccc1.Cl (stereo partly drawn) [Example 16, (S)-N-[2-(3,4-Dichlorophenyl)-4-[4-(4-methylsulfinylphenyl)piperidino]butyl]-N-methylbenzamide hydrochloride], the Ki (human NK2 receptor; read-out: Ki (Test A)) is reported as 0.6 nM, the “number fully protected/total number tested (Test C)” value (NK2 receptor) is reported as 5/6 and the “percent protection (Test C)” value (NK2 receptor) is reported as 88%. For the same compound, the Kb (guinea pig trachea; [2]) was 6.31 nM.
Compound CN(CC(CCN1CCC2(CC1)OC(=O)c1ccccc12)c1ccc(Cl)c(Cl)c1)C(=O)c1ccccc1 (centres unmarked) [Example 24, N-[2-(3,4-Dichlorophenyl)-4-(3-oxospiro[isobenzofuran-1(3H),4'-piperidin]-1'-yl)butyl]-N-methylbenzamide hydrochloride] has a Ki (human NK2 receptor) of 3.5 nM and a Kb (guinea pig trachea; pKB (Test B)) of 6.31 nM.
With CN(C[C@@H](CCN1CCC(c2ccccn2)CC1)c1ccc(Cl)c(Cl)c1)C(=O)c1ccccc1.Cl [Example 27, (S)-N-[2-(3,4-Dichlorophenyl)-4-[4-(2-pyridyl)piperidino]butyl]-N-methylbenzamide hydrochloride] the Ki (human NK2 receptor; read-out: Ki (Test A)) was 2 nM, the “number fully protected/total number tested (Test C)” value (NK2 receptor) was 2/6 and the “percent protection (Test C)” value (NK2 receptor) was 54%. It also gave a Kb (guinea pig trachea; [2]) of 12.6 nM.
In the case of CC(C)Oc1cccc(CC(=O)N(C)CC(CCN2CCC(c3ccccc3)CC2)c2ccc(Cl)c(Cl)c2)c1 (centres unmarked) [N-[2-(3,4-dichlorophenyl)-4-(4-phenylpiperidino)butyl]-N-methyl-3-isopropoxyphenylacetamide], the “affinity for neurokinin receptors” value (neurokinin receptors) is listed as “high affinity”.
For CC(=O)NC1(c2ccccc2)CCN(CC[C@H](CN(C)C(=O)c2ccccc2)c2ccc(Cl)c(Cl)c2)CC1 [SR 48968, N-[4-(4-acetylamino-4-phenylpiperidino)-2-(3,4-dichlorophenyl)butyl]-N-methylbenzamide, reference compound], the Ki [1] is given as 0.5 nM.
